In ChEMBL document CHEMBL1201862, “PubChem BioAssay data set” (2004):
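Exposure lasted 48 hours, with cells grown in 96-well plates and compounds tested at five concentrations. Here, GI50 denotes the concentration required for 50% inhibition of growth.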 Calls of active or inactive are those of the source. Rule as the data show it: active = GI50 up to about 1.1 µM and inactive = higher.

How the values were obtained:
Test in all cases: NCI-60 cell line screen, 48 h
EKVX = test system: EKVX
K562 = test system: K562
SF-539 = test system: SF-539
OVCAR-8 = test system: OVCAR-8
LOX IMVI = test system: LOX IMVI
IGROV-1 = test system: IGROV-1
KM-20L2 = test system: KM-20L2
CCRF-CEM = test system: CCRF-CEM
M19-MEL = test system: M19-MEL
SNB-78 = test system: SNB-78
SNB-19 = test system: SNB-19
Malme-3M = test system: Malme-3M
UACC-257 = test system: UACC-257
RPMI-8226 = test system: RPMI-8226
HOP-62 = test system: HOP-62
KM12 = test system: KM12
HCT-15 = test system: HCT-15
SNB-75 = test system: SNB-75
SF-268 = test system: SF-268
XF498 = test system: XF498
NCI-H226 = test system: NCI-H226
MOLT-4 = test system: MOLT-4
HCC 2998 = test system: HCC 2998
RXF 631 = test system: RXF 631
DLD-1 = test system: DLD-1
UO-31 = test system: UO-31
SN12C = test system: SN12C
LXFL 529 = test system: LXFL 529
SK-OV-3 = test system: SK-OV-3
A498 = test system: A498
SF-295 = test system: SF-295
M14 = test system: M14
COLO 205 = test system: COLO 205
CAKI-1 = test system: CAKI-1
DMS-114 = test system: DMS-114
ACHN = test system: ACHN
SK-MEL-28 = test system: SK-MEL-28
SW-620 = test system: SW-620
UACC-62 = test system: UACC-62
HL-60 = test system: HL-60
HCT-116 = test system: HCT-116
HT-29 = test system: HT-29
OVCAR-5 = test system: OVCAR-5
NCI-H522 = test system: NCI-H522
A549 = test system: A549
OVCAR-3 = test system: OVCAR-3
SK-MEL-2 = test system: SK-MEL-2
NCI-H460 = test system: NCI-H460
786-0 = test system: 786-0
SK-MEL-5 = test system: SK-MEL-5
OVCAR-4 = test system: OVCAR-4
U-251 = test system: U-251
RXF 393 = test system: RXF 393
SR = test system: SR
HOP-92 = test system: HOP-92
TK-10 = test system: TK-10
NCI-H23 = test system: NCI-H23
HOP-18 = test system: HOP-18
DMS-273 = test system: DMS-273

CCOCNC(=O)N(COCC)COCC
GI50 (EKVX): > 100 µM (inactive)
GI50 (K562): > 100 µM (inactive)
GI50 (SF-539): > 100 µM (inactive)
GI50 (OVCAR-8): > 100 µM (inactive)
GI50 (LOX IMVI): > 100 µM (inactive)
GI50 (IGROV-1): > 100 µM (inactive)
GI50 (KM-20L2): > 100 µM (inactive)
GI50 (CCRF-CEM): > 100 µM (inactive)
GI50 (M19-MEL): > 100 µM (inactive)
GI50 (SNB-78): > 100 µM (inactive)
GI50 (SNB-19): > 100 µM (inactive)
GI50 (Malme-3M): > 100 µM (inactive)
GI50 (UACC-257): > 100 µM (inactive)
GI50 (RPMI-8226): > 100 µM (inactive)
GI50 (HOP-62): > 100 µM (inactive)
GI50 (KM12): > 100 µM (inactive)
GI50 (HCT-15): > 100 µM
GI50 (SNB-75): > 100 µM (inactive)
GI50 (SF-268): > 100 µM (inactive)
GI50 (XF498): > 100 µM (inactive)
GI50 (NCI-H226): > 100 µM (inactive)
GI50 (MOLT-4): > 100 µM (inactive)
GI50 (HCC 2998): > 100 µM (inactive)
GI50 (RXF 631): > 100 µM (inactive)
GI50 (DLD-1): > 100 µM (inactive)
GI50 (UO-31): > 100 µM (inactive)
GI50 (SN12C): > 100 µM (inactive)
GI50 (LXFL 529): > 100 µM (inactive)
GI50 (SK-OV-3): > 100 µM (inactive)
GI50 (A498): > 100 µM (inactive)
GI50 (SF-295): > 100 µM (inactive)
GI50 (M14): > 100 µM (inactive)
GI50 (COLO 205): > 100 µM (inactive)
GI50 (CAKI-1): > 100 µM (inactive)
GI50 (DMS-114): > 100 µM (inactive)
GI50 (ACHN): > 100 µM (inactive)
GI50 (SK-MEL-28): > 100 µM (inactive)
GI50 (SW-620): > 100 µM (inactive)
GI50 (UACC-62): > 100 µM (inactive)
GI50 (HL-60): > 100 µM (inactive)
GI50 (HCT-116): > 100 µM (inactive)
GI50 (HT-29): > 100 µM (inactive)
GI50 (OVCAR-5): > 100 µM (inactive)
GI50 (NCI-H522): > 100 µM (inactive)
GI50 (A549): > 100 µM (inactive)
GI50 (OVCAR-3): 33 µM (inactive)
GI50 (SK-MEL-2): > 100 µM (inactive)

CC(=O)NNc1nc(C)c(C(=O)NNC(=O)C(=O)Nc2ccccc2C#N)s1
GI50 (NCI-H460): > 100 µM (inactive)
GI50 (EKVX): > 100 µM (inactive)
GI50 (K562): > 100 µM (inactive)
GI50 (SF-539): > 100 µM (inactive)
GI50 (OVCAR-8): > 100 µM (inactive)
GI50 (786-0): > 100 µM (inactive)
GI50 (LOX IMVI): > 100 µM (inactive)
GI50 (IGROV-1): > 100 µM (inactive)
GI50 (KM-20L2): > 100 µM (inactive)
GI50 (CCRF-CEM): 65.9 µM (inactive)
GI50 (SK-MEL-5): > 100 µM (inactive)
GI50 (M19-MEL): > 100 µM (inactive)
GI50 (SNB-78): > 100 µM (inactive)
GI50 (SNB-19): > 100 µM (inactive)
GI50 (Malme-3M): > 100 µM (inactive)
GI50 (UACC-257): > 100 µM (inactive)
GI50 (RPMI-8226): > 100 µM (inactive)
GI50 (HOP-62): > 100 µM (inactive)
GI50 (KM12): 50.1 µM (inactive)
GI50 (HCT-15): > 100 µM
GI50 (SNB-75): > 100 µM (inactive)
GI50 (SF-268): > 100 µM (inactive)
GI50 (OVCAR-4): > 100 µM (inactive)
GI50 (U-251): > 100 µM (inactive)
GI50 (NCI-H226): > 100 µM (inactive)
GI50 (MOLT-4): > 100 µM (inactive)
GI50 (RXF 393): > 100 µM (inactive)
GI50 (HCC 2998): > 100 µM (inactive)
GI50 (RXF 631): > 100 µM (inactive)
GI50 (DLD-1): > 100 µM (inactive)
GI50 (UO-31): > 100 µM (inactive)
GI50 (SN12C): > 100 µM (inactive)
GI50 (LXFL 529): > 100 µM (inactive)
GI50 (SK-OV-3): > 100 µM (inactive)
GI50 (SR): 87.1 µM (inactive)
GI50 (HOP-92): > 100 µM (inactive)
GI50 (A498): > 100 µM (inactive)
GI50 (SF-295): > 100 µM (inactive)
GI50 (M14): > 100 µM (inactive)
GI50 (COLO 205): > 100 µM (inactive)
GI50 (CAKI-1): > 100 µM (inactive)
GI50 (DMS-114): > 100 µM (inactive)
GI50 (ACHN): > 100 µM (inactive)
GI50 (SK-MEL-28): > 100 µM (inactive)
GI50 (SW-620): > 100 µM (inactive)
GI50 (UACC-62): > 100 µM (inactive)
GI50 (HL-60): > 100 µM (inactive)
GI50 (HCT-116): > 100 µM (inactive)
GI50 (TK-10): > 100 µM (inactive)
GI50 (HT-29): > 100 µM (inactive)
GI50 (NCI-H23): > 100 µM (inactive)
GI50 (OVCAR-5): > 100 µM (inactive)
GI50 (NCI-H522): 88.1 µM (inactive)
GI50 (A549): > 100 µM (inactive)
GI50 (OVCAR-3): > 100 µM (inactive)
GI50 (HOP-18): > 100 µM (inactive)
GI50 (DMS-273): > 100 µM (inactive)
GI50 (SK-MEL-2): > 100 µM (inactive)
